Measurements published in paper PMC6506387 (Structure (London, England : 1993), 2019).

Tests used:
wt PKAcα [1] = target: T1, wt PKAcα (Homo sapiens, UniProt P17612); conditions: 20 mM MOPS pH 7.0, 150 mM NaCl; ATP 0-0.75 mM
wt PKAcα [2] = target: T1, wt PKAcα; conditions: 1 mM ATP, 10 mM MgCl2, 20 mM MOPS pH 7.0, 150 mM NaCl, 0.5 °C/min

Which results are given for Nc1ncnc2c1ncn2[C@@H]1O[C@H](COP(=O)(O)OP(=O)(O)OP(=O)(O)O)[C@@H](O)[C@H]1O [ATP]?
dissociation constant (wt PKAcα [1]): ATP dissociation constants were determined using the ThermoFluor assay.; thermal shift (wt PKAcα [2]): stabilities of apo PKAcα or J-PKAcα subunits and its ATP and/or peptide binding forms
